According to the CheMixHub viscosity set:

Assay: xn = mol fraction of the nth substance listed

CCCCCCO + COC(=O)OC
Conditions	viscosity [mPa·s]
293.15 K, 100 kPa, x2 = 0.1003	3.53
293.15 K, 100 kPa, x2 = 0.1998	2.47
293.15 K, 100 kPa, x2 = 0.3011	1.87
293.15 K, 100 kPa, x2 = 0.4001	1.51
293.15 K, 100 kPa, x2 = 0.5007	1.24
293.15 K, 100 kPa, x2 = 0.5987	0.95
293.15 K, 100 kPa, x2 = 0.7003	0.77
293.15 K, 100 kPa, x2 = 0.8013	0.71
293.15 K, 100 kPa, x2 = 0.9002	0.61
293.15 K, 101 kPa, x2 = 0.04349	4.578
293.15 K, 101 kPa, x2 = 0.1014	3.717
293.15 K, 101 kPa, x2 = 0.1936	2.761
293.15 K, 101 kPa, x2 = 0.3033	2.046
293.15 K, 101 kPa, x2 = 0.4078	1.6
293.15 K, 101 kPa, x2 = 0.5026	1.302
293.15 K, 101 kPa, x2 = 0.602	1.06
293.15 K, 101 kPa, x2 = 0.699	0.883
293.15 K, 101 kPa, x2 = 0.8055	0.756
293.15 K, 101 kPa, x2 = 0.9079	0.685
293.15 K, 101 kPa, x2 = 0.9562	0.648
298.15 K, 100 kPa, x2 = 0.1003	3.06
298.15 K, 100 kPa, x2 = 0.1998	2.17
298.15 K, 100 kPa, x2 = 0.3011	1.66
298.15 K, 100 kPa, x2 = 0.4001	1.34
298.15 K, 100 kPa, x2 = 0.5007	1.12
298.15 K, 100 kPa, x2 = 0.5987	0.92
298.15 K, 100 kPa, x2 = 0.7003	0.77
298.15 K, 100 kPa, x2 = 0.8013	0.66
298.15 K, 100 kPa, x2 = 0.9002	0.57
303.15 K, 100 kPa, x2 = 0.1003	2.67
303.15 K, 100 kPa, x2 = 0.1998	1.93
303.15 K, 100 kPa, x2 = 0.3011	1.48
303.15 K, 100 kPa, x2 = 0.4001	1.23
303.15 K, 100 kPa, x2 = 0.5007	1.02
303.15 K, 100 kPa, x2 = 0.5987	0.84
303.15 K, 100 kPa, x2 = 0.7003	0.72
303.15 K, 100 kPa, x2 = 0.8013	0.61
303.15 K, 100 kPa, x2 = 0.9002	0.54
303.15 K, 101 kPa, x2 = 0.04993	3.355
303.15 K, 101 kPa, x2 = 0.1121	2.759
303.15 K, 101 kPa, x2 = 0.1985	2.135
303.15 K, 101 kPa, x2 = 0.3013	1.623
303.15 K, 101 kPa, x2 = 0.4548	1.153
303.15 K, 101 kPa, x2 = 0.4939	1.069
303.15 K, 101 kPa, x2 = 0.5585	0.951
303.15 K, 101 kPa, x2 = 0.7038	0.747
303.15 K, 101 kPa, x2 = 0.7977	0.649
303.15 K, 101 kPa, x2 = 0.9079	0.571
303.15 K, 101 kPa, x2 = 0.9534	0.548
308.15 K, 100 kPa, x2 = 0.1003	2.35
308.15 K, 100 kPa, x2 = 0.1998	1.71
308.15 K, 100 kPa, x2 = 0.3011	1.33
308.15 K, 100 kPa, x2 = 0.4001	1.07
308.15 K, 100 kPa, x2 = 0.5007	0.93
308.15 K, 100 kPa, x2 = 0.5987	0.78
308.15 K, 100 kPa, x2 = 0.7003	0.67
308.15 K, 100 kPa, x2 = 0.8013	0.57
308.15 K, 100 kPa, x2 = 0.9002	0.53
313.15 K, 100 kPa, x2 = 0.1003	2.07
313.15 K, 100 kPa, x2 = 0.1998	1.53
313.15 K, 100 kPa, x2 = 0.3011	1.21
313.15 K, 100 kPa, x2 = 0.4001	0.99
313.15 K, 100 kPa, x2 = 0.5007	0.86
313.15 K, 100 kPa, x2 = 0.5987	0.72
313.15 K, 100 kPa, x2 = 0.7003	0.62
313.15 K, 100 kPa, x2 = 0.8013	0.53
313.15 K, 100 kPa, x2 = 0.9002	0.48
313.15 K, 101 kPa, x2 = 0.05023	2.521
313.15 K, 101 kPa, x2 = 0.1223	2.039
313.15 K, 101 kPa, x2 = 0.2131	1.599
313.15 K, 101 kPa, x2 = 0.3291	1.223
313.15 K, 101 kPa, x2 = 0.4005	1.061
313.15 K, 101 kPa, x2 = 0.4874	0.911
313.15 K, 101 kPa, x2 = 0.5997	0.76
313.15 K, 101 kPa, x2 = 0.6524	0.713
313.15 K, 101 kPa, x2 = 0.7994	0.572
313.15 K, 101 kPa, x2 = 0.9089	0.514
313.15 K, 101 kPa, x2 = 0.9495	0.501
318.15 K, 100 kPa, x2 = 0.1003	1.83
318.15 K, 100 kPa, x2 = 0.1998	1.37
318.15 K, 100 kPa, x2 = 0.3011	1.09
318.15 K, 100 kPa, x2 = 0.4001	0.91
318.15 K, 100 kPa, x2 = 0.5007	0.79
318.15 K, 100 kPa, x2 = 0.5987	0.67
318.15 K, 100 kPa, x2 = 0.7003	0.58
318.15 K, 100 kPa, x2 = 0.8013	0.51
318.15 K, 100 kPa, x2 = 0.9002	0.46
323.15 K, 100 kPa, x2 = 0.1003	1.63
323.15 K, 100 kPa, x2 = 0.1998	1.24
323.15 K, 100 kPa, x2 = 0.3011	0.99
323.15 K, 100 kPa, x2 = 0.4001	0.84
323.15 K, 100 kPa, x2 = 0.5007	0.73
323.15 K, 100 kPa, x2 = 0.5987	0.63
323.15 K, 100 kPa, x2 = 0.7003	0.55
323.15 K, 100 kPa, x2 = 0.8013	0.48
323.15 K, 100 kPa, x2 = 0.9002	0.43
